Measurements: patent publication US20220110862A1, “TREATMENT OF COGNITIVE DYSFUNCTION WITH PYRROLOPYRIDINE-ANILINE COMPOUNDS” (NFlection Therapeutics, Inc., priority 2020, published 2022)
“And” between values parts separate entries of the source, which are not always exact repeats. Identical values can stand only once. Like-named read-outs stand apart in the source and are kept apart here.

Legend:
[1] = Plasma concentration of Compound 1.003 after single intranasal administration of nasal formulation Ex. A (LC-MS/MS); format: in vivo, Mouse; details: female athymic mice
Experimental: (§1) This study was conducted to investigate the potential for Compound 1.003 to penetrate into the brain following a single intranasal administration of a nasal formulation including the compound. Compound 1.003 was formulated at a dose strength of 2.3% according to Ex. A of Example 1.
(§2) A single group of female athymic mice each received a single intranasal administration of Compound 1.003. At intervals post dose the animals were sacrificed and samples of blood and brain were collected. The concentration of Compound 1.003 was determined in plasma and brain; and samples of brain were used for determination of the expression of phosphor-ERK (p-ERK).
(§3) The study was conducted using the following animals: • Species: Mouse; • Strain: NCr mu/mu athymic nude mice from Charles River; • Sex: Female; • Age: 7 weeks old at the time of dosing; • Body weight: 20.1 to 27.0 g; and • Number used: 12
(§4) Overview: A single group of 12 athymic female mice each received a single intranasal administration of Compound 1.003 (Ex. A nasal formulation of Example 1). Three animals were sacrificed at each a 4 times post dose and sample of plasma and brain collected at necropsy. The concentration of Compound 1.003 was determined in plasma and brain by liquid chromatography with tandem mass spectrometry (LC-MS/MS) and the expression of p-ERK was determined in brain samples.
(§5) Dosing: Each animal received a single administration (50 μL) of the nasal formulation Ex. A including Compound 1.003. The dose was administration intranasally to each animal.
(§6) (dry ice). The samples were send out for the LC-MS/MS analysis of plasma concentration of Compound 1.003. • Brain Collection: Brain (divide into 2 parts at the mid sagittal plane); Part 1: preservation—snap frozen, ship at −80° C. (dry ice) for the LC-MS/MS analysis of Compound 1.003; and Part 2: preservation—fixed in 10% neutral buffered formalin for at least 24 h. Samples were then transferred after 24 h into 1.5 mL Eppendorf tubes containing 70% EtOH and stored ambient until shipment for the expression of p-ERK.
(§7) Bioanalytical Methods: Bioanalysis of […] plasma and brain samples for Compound 1.003 was performed using the LC-MS/MS analysis. For this study, the analysis was conducted using existing fit for purpose bioanalytical methods. Plasma samples were analyzed undiluted against a plasma standard curve (10 standards between 0.5 to 5000 ng/mL). Prior to analysis for concentration of compound 1.003, the brain samples were weighed, mixed with 5 volumes of water and then homogenised. Homogenised samples were then diluted 2× into plasma and then analysed against the plasma standard curve ([…]). All results were then corrected for the dilution factor.

[2] = Brain concentration and brain:plasma ratio of Compound 1.003 after single intranasal administration of nasal formulation Ex. A (LC-MS/MS); format: in vivo, Mouse; details: female athymic mice, single intranasal 50 μL Ex. A; for Brain concentration, animal replicates: individual animals; for Brain concentration, Mean: mean of 3
Experimental: as §1, §2, §3, §4, §5, §6, §7

Compound: Cn1c(Nc2ccc(I)cc2F)c(C(=O)NOCCO)c2cccnc21 [Compound 1.003, 2-((2-fluoro-4-iodophenyl)amino)-N-(2-hydroxyethoxy)-1-methyl-1H-pyrrolo[2,3-b]pyridine-3-carboxamide]
- Cmax ([1]; NCr mu/mu athymic nude, mouse, plasma, inhaled or intranasal, single intranasal 50 μL Ex. A, read-out: maximum plasma concentration (Cmax)): 996 ng/mL
- Plasma concentration, animal replicates ([1]; single intranasal 50 μL Ex. A, 0.5 h post dose, individual animals): 1000 ng/mL and 823 ng/mL
- Plasma concentration, animal replicates ([1]; single intranasal 50 μL Ex. A, 1.0 h post dose, individual animals): 82.4 ng/mL and 125 ng/mL
- Plasma concentration, animal replicates ([1]; single intranasal 50 μL Ex. A, 4.0 h post dose, individual animals): 52.4 ng/mL and 82.4 ng/mL
- Plasma concentration, animal replicates ([1]; single intranasal 50 μL of nasal formulation Ex. A (2.3%), 0.25 h post dose, individual animals): 1190 ng/mL and 1230 ng/mL and 568 ng/mL
- concentration at 0.5 h ([1]; female, NCr mu/mu athymic nude, mouse, plasma, other: intranasal, 50 μL, single intranasal 50 μL Ex. A, 0.5 h post dose, individual animals, read-out: Plasma concentration, animal replicates): 757 ng/mL
- concentration at 0.5 h ([1]; female, NCr mu/mu athymic nude, mouse, plasma, other: intranasal, 50 μL, single intranasal 50 μL Ex. A, 0.5 h post dose, mean of 3, read-out: Plasma concentration, Mean): 860 ng/mL
- concentration at 1 h ([1]; female, NCr mu/mu athymic nude, mouse, plasma, other: intranasal, 50 μL, single intranasal 50 μL Ex. A, 1.0 h post dose, individual animals, read-out: Plasma concentration, animal replicates): 130 ng/mL
- concentration at 1 h ([1]; female, NCr mu/mu athymic nude, mouse, plasma, other: intranasal, 50 μL, single intranasal 50 μL Ex. A, 1.0 h post dose, mean of 3, read-out: Plasma concentration, Mean): 112 ng/mL
- concentration at 4 h ([1]; female, NCr mu/mu athymic nude, mouse, plasma, other: intranasal, 50 μL, single intranasal 50 μL Ex. A, 4.0 h post dose, individual animals, read-out: Plasma concentration, animal replicates): 45.5 ng/mL
- concentration at 4 h ([1]; female, NCr mu/mu athymic nude, mouse, plasma, other: intranasal, 50 μL, single intranasal 50 μL Ex. A, 4.0 h post dose, mean of 3, read-out: Plasma concentration, Mean): 60.1 ng/mL
- concentration at 0.25 h ([1]; female, NCr mu/mu athymic nude, mouse, plasma, other: intranasal, 50 μL, single intranasal 50 μL of nasal formulation Ex. A (2.3%), 0.25 h post dose, mean of 3): 996 ng/mL
- Brain:plasma concentration ratio, individual animal ([2]; 0.250 h post dose, animals 1-3): 0.30 and 0.49
- Brain concentration, animal replicates ([2]; 0.250 h post dose): 405 and 375 and 280
- Brain concentration, Mean ([2]; 0.250 h post dose): 353 ng/g
- Brain:plasma concentration ratio, individual animal ([2]; 0.500 h post dose, animals 4-6): 0.51 and 0.47
- Brain concentration, animal replicates ([2]; 0.500 h post dose): 297 and 513 and 383
- Brain concentration, Mean ([2]; 0.500 h post dose): 398 ng/g
- Brain:plasma concentration ratio, individual animal ([2]; 1.00 h post dose, animals 7-9): 1.45 and 2.49 and 1.15
- Brain concentration, animal replicates ([2]; 1.00 h post dose): 188 and 205 and 144
- Brain concentration, Mean ([2]; 1.00 h post dose): 179 ng/g
- Brain:plasma concentration ratio, Mean ([2]; 4.00 h post dose): 1.72
- Brain:plasma concentration ratio, individual animal ([2]; 4.00 h post dose, animals 10-12): 3.65 and 0.89 and 0.63
- Brain concentration, animal replicates ([2]; 4.00 h post dose): 166 and 46.5 and 51.9
- Brain concentration, Mean ([2]; 4.00 h post dose): 88.1 ng/g
- Kp at 0.25 h ([2]; female, NCr mu/mu athymic nude, mouse, brain, inhaled or intranasal, 50 μL, 0.250 h (15 min) post dose, read-out: Brain:plasma concentration ratio, Mean): 0.38
- Kp at 0.25 h ([2]; female, NCr mu/mu athymic nude, mouse, brain, inhaled or intranasal, 50 μL, 0.250 h post dose, animals 1-3, read-out: Brain:plasma concentration ratio, individual animal): 0.34
- Kp at 0.5 h ([2]; female, NCr mu/mu athymic nude, mouse, brain, inhaled or intranasal, 50 μL, 0.500 h post dose, animals 4-6, read-out: Brain:plasma concentration ratio, individual animal): 0.39
- Kp at 0.5 h ([2]; female, NCr mu/mu athymic nude, mouse, brain, inhaled or intranasal, 50 μL, 0.500 h post dose, read-out: Brain:plasma concentration ratio, Mean): 0.46
- Kp at 1 h ([2]; female, NCr mu/mu athymic nude, mouse, brain, inhaled or intranasal, 50 μL, 1.00 h post dose): 1.7
- Kp at 4 h ([2]; female, NCr mu/mu athymic nude, mouse, brain, inhaled or intranasal, 50 μL, 4.00 h post dose): 1.7
